{"source": "BindingDB's records for doi:10.1016/j.ejmech.2021.113889", "about": "(China Pharmaceutical University, 2021)", "biological_target": "Glycogen synthase kinase-3 beta (Homo sapiens, UniProt P49841)", "sequence (P49841 whole entry)": "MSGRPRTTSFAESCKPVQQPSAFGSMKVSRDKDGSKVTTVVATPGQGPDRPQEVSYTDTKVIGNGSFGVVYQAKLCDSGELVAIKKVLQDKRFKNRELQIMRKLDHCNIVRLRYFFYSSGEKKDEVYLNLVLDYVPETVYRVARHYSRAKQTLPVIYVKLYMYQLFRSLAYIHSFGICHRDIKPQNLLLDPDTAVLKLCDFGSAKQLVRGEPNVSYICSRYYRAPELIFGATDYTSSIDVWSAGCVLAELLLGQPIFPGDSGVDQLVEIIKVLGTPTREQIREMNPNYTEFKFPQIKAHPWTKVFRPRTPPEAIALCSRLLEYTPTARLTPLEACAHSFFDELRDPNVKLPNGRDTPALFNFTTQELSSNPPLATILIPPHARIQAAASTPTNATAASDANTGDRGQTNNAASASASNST", "experiment": "Binding affinity to recombinant GSK3beta (unknown origin) assessed as dissociation rate constant upto 0.00975 uM by SPR analysis", "data": [{"molecule": "Nc1ncc(-c2ccc(S(=O)(=O)N3CCN(CCCCc4cn(CCOCCOCCOCCOCCOCCNc5cccc6c5C(=O)N(C5CCC(=O)NC5=O)C6=O)nn4)CC3)cc2)nc1C(=O)Nc1cccnc1", "note": "(stereo unspecified)", "values": [{"measurement": "koff", "value": 0.0253, "unit": "s⁻¹"}]}]}
